How the values were obtained:
Type in all cases: cell-based
SK-OV-3 = assay: SRB growth inhibition, SK-OV-3; details: Homo sapiens, SK-OV-3, Ovarian Cancer, 48 h
Protocol: (§1) Human tumor cell lines were grown in RPM(1640 medium containing 5% fetal bovine serum and 2 mM L-glutamine. For a typical screening experiment, cells were inoculated into 96 well microtiter plates in 100 μL at plating densities ranging from 5,000 to 40,000 cells/well depending on the doubling time of individual cell lines. After cell inoculation, the microtiter plates were incubated at 37° C., 5% CO2, 95% air and 100% relative humidity for 24 h prior to addition of Compound 3 above.
(§2) After 24 h, two plates of each cell line were fixed in situ with TCA, to represent a measurement of the cell population for each cell line at the time of drug addition (Tz). […]
(§3) Following drug addition, the plates were incubated for an additional 48 h at 37° C., 5% CO2, 95% air, and 100% relative humidity. […] Bound stain was subsequently solubilized with 10 mM trizma base, and the absorbance was read on an automated plate reader at a wavelength of 515 nm. […] Using the seven absorbance measurements [time zero, (Tz), control growth, (C), and test growth in the presence of drug at the five concentration levels (Ti)], the percentage growth was calculated at each of the drug concentrations levels. Percentage growth inhibition was calculated as: [(Ti-Tz)/(C-Tz)]×100 for concentrations for which Ti>/=Tz [(Ti-Tz)/Tz]×100 for concentrations for which Ti<Tz. […]

OVCAR-4 = assay: SRB growth inhibition, OVCAR-4; details: Homo sapiens, OVCAR-4, Ovarian Cancer, 48 h
Protocol: as §1, §2, §3

SN12C = assay: SRB growth inhibition, SN12C; details: Homo sapiens, Renal Cancer, 48 h
Protocol: as §1, §2, §3

786-0 = assay: SRB growth inhibition, 786-0; details: Homo sapiens, 786-0, Renal Cancer, 48 h
Protocol: as §1, §2, §3

NCI-H23 = assay: SRB growth inhibition, NCI-H23; details: Homo sapiens, NCI-H23, Non-Small Cell Lung Cancer, 48 h
Protocol: as §1, §2, §3

SNB-75 = assay: SRB growth inhibition, SNB-75; details: Homo sapiens, SNB-75, CNS Cancer, 48 h
Protocol: as §1, §2, §3

RPMI-8226 = assay: SRB growth inhibition, RPMI-8226; details: Homo sapiens, RPMI-8226, Leukemia, 48 h
Protocol: as §1, §2, §3

A498 = assay: SRB growth inhibition, A498; details: Homo sapiens, A498, Renal Cancer, 48 h
Protocol: as §1, §2, §3

MOLT-4 = assay: SRB growth inhibition, MOLT-4; details: Homo sapiens, MOLT-4, Leukemia, 48 h
Protocol: as §1, §2, §3

SW-620 = assay: SRB growth inhibition, SW-620; details: Homo sapiens, SW-620, Colon Cancer, 48 h
Protocol: as §1, §2, §3

NCI-H226 = assay: SRB growth inhibition, NCI-H226; details: Homo sapiens, NCI-H226, Non-Small Cell Lung Cancer, 48 h
Protocol: as §1, §2, §3

NCI/ADR-RES = assay: SRB growth inhibition, NCI/ADR-RES; details: Homo sapiens, Ovarian Cancer, 48 h
Protocol: as §1, §2, §3

T-47D = assay: SRB growth inhibition, T-47D; details: Homo sapiens, T47D, Breast Cancer, 48 h
Protocol: as §1, §2, §3

HOP-62 = assay: SRB growth inhibition, HOP-62; details: Homo sapiens, HOP-62, Non-Small Cell Lung Cancer, 48 h
Protocol: as §1, §2, §3

MDA-MB-468 = assay: SRB growth inhibition, MDA-MB-468; details: Homo sapiens, MDA-MB-468, Breast Cancer, 48 h
Protocol: as §1, §2, §3

SNB-19 = assay: SRB growth inhibition, SNB-19; details: Homo sapiens, SNB-19, CNS Cancer, 48 h
Protocol: as §1, §2, §3

HCT-116 = assay: SRB growth inhibition, HCT-116; details: Homo sapiens, HCT-116, Colon Cancer, 48 h
Protocol: as §1, §2, §3

HCC-2998 = assay: SRB growth inhibition, HCC-2998; details: Homo sapiens, HCC-2998, Colon Cancer, 48 h
Protocol: as §1, §2, §3

SR = assay: SRB growth inhibition, SR; details: Homo sapiens, Leukemia, 48 h
Protocol: as §1, §2, §3

CAKI-1 = assay: SRB growth inhibition, CAKI-1; details: Homo sapiens, CAKI-1, Renal Cancer, 48 h
Protocol: as §1, §2, §3

ACHN = assay: SRB growth inhibition, ACHN; details: Homo sapiens, Renal Cancer, 48 h
Protocol: as §1, §2, §3

U251 = assay: SRB growth inhibition, U251; details: Homo sapiens, U-251, U251, CNS Cancer, 48 h
Protocol: as §1, §2, §3

M14 = assay: SRB growth inhibition, M14; details: Homo sapiens, M14, Melanoma, 48 h
Protocol: as §1, §2, §3

RXF 393 = assay: SRB growth inhibition, RXF 393; details: Homo sapiens, RXF 393, Renal Cancer, 48 h
Protocol: as §1, §2, §3

MDA-MB-435 = assay: SRB growth inhibition, MDA-MB-435; details: Homo sapiens, MDA-MB-435, Melanoma, 48 h
Protocol: as §1, §2, §3

EKVX = assay: SRB growth inhibition, EKVX; details: Homo sapiens, Non-Small Cell Lung Cancer, 48 h
Protocol: as §1, §2, §3

CCRF-CEM = assay: SRB growth inhibition, CCRF-CEM; details: Homo sapiens, Leukemia, 48 h
Protocol: as §1, §2, §3

SK-MEL-5 = assay: SRB growth inhibition, SK-MEL-5; details: Homo sapiens, SK-MEL-5, Melanoma, 48 h
Protocol: as §1, §2, §3

SF-268 = assay: SRB growth inhibition, SF-268; details: Homo sapiens, SF-268, CNS Cancer, 48 h
Protocol: as §1, §2, §3

UACC-62 = assay: SRB growth inhibition, UACC-62; details: Homo sapiens, UACC-62, Melanoma, 48 h
Protocol: as §1, §2, §3

HT29 = assay: SRB growth inhibition, HT29; details: Homo sapiens, HT-29, HT29, Colon Cancer, 48 h
Protocol: as §1, §2, §3

LOX IMVI = assay: SRB growth inhibition, LOX IMVI; details: Homo sapiens, Melanoma, 48 h
Protocol: as §1, §2, §3

NCI-H460 = assay: SRB growth inhibition, NCI-H460; details: Homo sapiens, NCI-H460, Non-Small Cell Lung Cancer, 48 h
Protocol: as §1, §2, §3

MDA-MB-231/ATCC = assay: SRB growth inhibition, MDA-MB-231/ATCC; details: Homo sapiens, Breast Cancer, 48 h
Protocol: as §1, §2, §3

PC-3 = assay: SRB growth inhibition, PC-3; details: Homo sapiens, PC-3, Prostate Cancer, 48 h
Protocol: as §1, §2, §3

SF-295 = assay: SRB growth inhibition, SF-295; details: Homo sapiens, SF-295, CNS Cancer, 48 h
Protocol: as §1, §2, §3

HS 578T = assay: SRB growth inhibition, HS 578T; details: Homo sapiens, Breast Cancer, 48 h
Protocol: as §1, §2, §3

A549/ATCC = assay: SRB growth inhibition, A549/ATCC; details: Homo sapiens, Non-Small Cell Lung Cancer, 48 h
Protocol: as §1, §2, §3

KM12 = assay: SRB growth inhibition, KM12; details: Homo sapiens, KM12, Colon Cancer, 48 h
Protocol: as §1, §2, §3

HL-60(TB) = assay: SRB growth inhibition, HL-60(TB); details: Homo sapiens, Leukemia, 48 h
Protocol: as §1, §2, §3

DU-145 = assay: SRB growth inhibition, DU-145; details: Homo sapiens, DU-145, Prostate Cancer, 48 h
Protocol: as §1, §2, §3

BT-549 = assay: SRB growth inhibition, BT-549; details: Homo sapiens, BT-549, Breast Cancer, 48 h
Protocol: as §1, §2, §3

NCI-H522 = assay: SRB growth inhibition, NCI-H522; details: Homo sapiens, NCI-H522, Non-Small Cell Lung Cancer, 48 h
Protocol: as §1, §2, §3

MALME-3M = assay: SRB growth inhibition, MALME-3M; details: Homo sapiens, Melanoma, 48 h
Protocol: as §1, §2, §3

MCF7 = assay: SRB growth inhibition, MCF7; details: Homo sapiens, MCF7, Breast Cancer, 48 h
Protocol: as §1, §2, §3

SK-MEL-2 = assay: SRB growth inhibition, SK-MEL-2; details: Homo sapiens, SK-MEL-2, Melanoma, 48 h
Protocol: as §1, §2, §3

TK-10 = assay: SRB growth inhibition, TK-10; details: Homo sapiens, TK-10, Renal Cancer, 48 h
Protocol: as §1, §2, §3

SK-MEL-28 = assay: SRB growth inhibition, SK-MEL-28; details: Homo sapiens, SK-MEL-28, Melanoma, 48 h
Protocol: as §1, §2, §3

HOP-92 = assay: SRB growth inhibition, HOP-92; details: Homo sapiens, HOP-92, Non-Small Cell Lung Cancer, 48 h
Protocol: as §1, §2, §3

UACC-257 = assay: SRB growth inhibition, UACC-257; details: Homo sapiens, UACC-257, Melanoma, 48 h
Protocol: as §1, §2, §3

OVCAR-8 = assay: SRB growth inhibition, OVCAR-8; details: Homo sapiens, OVCAR-8, Ovarian Cancer, 48 h
Protocol: as §1, §2, §3

K-562 = assay: SRB growth inhibition, K-562; details: Homo sapiens, K562, K-562, Leukemia, 48 h
Protocol: as §1, §2, §3

SF-539 = assay: SRB growth inhibition, SF-539; details: Homo sapiens, SF-539, CNS Cancer, 48 h
Protocol: as §1, §2, §3

HCT-15 = assay: SRB growth inhibition, HCT-15; details: Homo sapiens, HCT-15, Colon Cancer, 48 h
Protocol: as §1, §2, §3

NCI-H322M = assay: SRB growth inhibition, NCI-H322M; details: Homo sapiens, Non-Small Cell Lung Cancer, 48 h
Protocol: as §1, §2, §3

UO-31 = assay: SRB growth inhibition, UO-31; details: Homo sapiens, UO-31, Renal Cancer, 48 h
Protocol: as §1, §2, §3

OVCAR-3 = assay: SRB growth inhibition, OVCAR-3; details: Homo sapiens, OVCAR-3, Ovarian Cancer, 48 h
Protocol: as §1, §2, §3

OVCAR-5 = assay: SRB growth inhibition, OVCAR-5; details: Homo sapiens, OVCAR-5, Ovarian Cancer, 48 h
Protocol: as §1, §2, §3

COLO 205 = assay: SRB growth inhibition, COLO 205; details: Homo sapiens, COLO 205, Colon Cancer, 48 h
Protocol: as §1, §2, §3

IGROV1 = assay: SRB growth inhibition, IGROV1; details: Homo sapiens, IGROV-1, IGROV1, Ovarian Cancer, 48 h
Protocol: as §1, §2, §3

S=C(N/N=C1/CCOc2cccnc21)N1CCN(c2ccccn2)CC1 [Example 3, (Z)—N′-(2H-pyrano[3,2-b]pyridin-4(3H)-ylidene)-4-(pyridin-2-yl)piperazine-1-carbothiohydrazide]
GI50 (SK-OV-3): 0.082 µM
GI50 (OVCAR-4): 0.0165 µM
GI50 (SN12C): 1.49 µM
GI50 (786-0): 0.0771 µM
GI50 (NCI-H23): 0.0321 µM
GI50 (SNB-75): 1.08 µM
GI50 (RPMI-8226): < 0.01 µM
GI50 (A498): 0.192 µM
GI50 (MOLT-4): < 0.01 µM
GI50 (SW-620): < 0.01 µM
GI50 (NCI-H226): 0.338 µM
GI50 (NCI/ADR-RES): 0.0374 µM
GI50 (T-47D): < 0.01 µM
GI50 (HOP-62): 0.0372 µM
GI50 (MDA-MB-468): < 0.01 µM
GI50 (SNB-19): 0.433 µM
GI50 (HCT-116): < 0.01 µM
GI50 (HCC-2998): 0.701 µM
GI50 (SR): 0.0655 µM
GI50 (CAKI-1): 0.151 µM
GI50 (ACHN): 0.196 µM
GI50 (U251): 0.0265 µM
GI50 (M14): 0.0375 µM
GI50 (RXF 393): 1.34 µM
GI50 (MDA-MB-435): 0.271 µM
GI50 (EKVX): 0.14 µM
GI50 (CCRF-CEM): < 0.01 µM
GI50 (SK-MEL-5): 0.222 µM
GI50 (SF-268): 0.41 µM
GI50 (UACC-62): 0.17 µM
GI50 (HT29): < 0.01 µM
GI50 (LOX IMVI): 0.0251 µM
GI50 (NCI-H460): 0.0388 µM
GI50 (MDA-MB-231/ATCC): 0.0748 µM
GI50 (PC-3): < 0.01 µM
GI50 (SF-295): 0.232 µM
GI50 (HS 578T): 0.754 µM
GI50 (A549/ATCC): 0.155 µM
GI50 (KM12): 0.225 µM
GI50 (HL-60(TB)): 0.0149 µM
GI50 (DU-145): 0.345 µM
GI50 (BT-549): 0.0718 µM
GI50 (NCI-H522): 0.505 µM
GI50 (MALME-3M): 1.29 µM
GI50 (MCF7): < 0.01 µM
GI50 (SK-MEL-2): 0.799 µM
GI50 (TK-10): 0.748 µM
GI50 (SK-MEL-28): 0.472 µM
GI50 (HOP-92): 0.0167 µM
GI50 (UACC-257): 0.0118 µM
GI50 (OVCAR-8): 0.0374 µM
GI50 (K-562): < 0.01 µM
GI50 (SF-539): 1.16 µM
GI50 (HCT-15): < 0.01 µM
GI50 (NCI-H322M): 0.221 µM
GI50 (UO-31): 0.132 µM
GI50 (OVCAR-3): < 0.01 µM
GI50 (OVCAR-5): 0.991 µM
GI50 (COLO 205): < 0.01 µM
GI50 (IGROV1): < 0.01 µM

— US10392397B2, “Heterocyclic thiosemicarbazone derivatives and their therapeutical applications” (NANTBIO, INC., priority 2015, dated 2019)
